The values that follow come from patent US11406605B2, “Therapeutic compositions for treating pancreatic cancer” (Golden Biotechnology Corporation, priority 2017, dated 2022).

By CC50 is commonly meant the concentration at which the toxic effect on the cells reaches its halfway point.

Data set [1] concerns metastatic pancreatic adenocarcinoma. The following applies: previously untreated metastatic pancreatic adenocarcinoma; cited from earlier work.
For data set [2], the system named is advanced pancreatic cancer. The following applies: people with advanced pancreatic cancer; cited from earlier work.
Data set [3] relates to advanced pancreatic cancer. The following applies: patients with advanced pancreatic cancer; cited from earlier work.
The subject of data set [4] is AsPC-1 pancreatic cancer cells. In words: Cytotoxicity of test articles (TC50), MTT assay. Format: cell-based, Human. The following applies: concentration at which cell viability was reduced to 50%. The protocol: The human pancreatic carcinoma cell lines, AsPC-1, PANC-1 and CaPan-2 were seeded 3×10^4 cells per well and cultured in a forty-eight (48) well cell culture dish (growth area 0.95 cm^2 per well). Sixteen (16) hours later, cells were treated Compound 1 alone or Compound 1 with a clinical chemotherapy drug, respectively. After 48 or 72 hours of the treatment, methylthiazoletetrazolium (MTT) assay (supplemental protocol-1) was performed to measure the effect of treatment on the viability of cells during proliferation.
B. Cell Preparation • 1. Remove and discard culture medium. • 2. Briefly rinse the cell layer with 5 mL HBSS. Gently shake and remove the HBSS. • 3. Add 5 mL trypsin-EDTA to 15 cm^2 polystyrene dishes. Incubate 5 mins at 37° C. in a humidified incubator with 95% air/5% CO2 atmosphere. • 4. Add 5 mL of complete growth medium (DMEM medium containing 10% FBS) and aspirate cells by gently pipetting. • 5. Count live cells using the trypan blue exclusion assay (supplemental protocol-2) with a hemocytometer. • 6. For in vitro study, cells will be seeded 3×10^4 cells per well and cultured in a forty-eight (48) wells cell culture dish for sixteen (16) hours until treatment. • 7. Incubate cultures at 37° C.
a. Cytotoxicity of test articles (TC50): AsPC-1 was seeded 3×10^4 cells (counted by Cell counter, LUNA™ Automated Cell Counter or hemocytometer) per well and cultured in a 48 wells cell culture dish. Cells were treated with single article from 400 or 800 μM with serial dilution to 0 μM. After 48 or 72 hours of treated, MTT assay was performed to measure the effect of treatment on the viability of AsPC-1 cells during proliferation. The absorbance at 595 nm was measured using a microplate reader (BioTEK, Synergy™ H1). Article sensitivity curves and TC50 values were calculated using GraphPad Prism 4.0 software.
For orientation: Tetrazolium assays rely on reduction of a dye to a coloured formazan, in cell work by metabolically active cells.

Where [5] appears, read: Homo sapiens, ASPC1, AsPC-1 cells, 48 hrs.
Where [6] appears, read: Homo sapiens, ASPC1, AsPC-1 cells, 72 hrs.

In the case of `Nc1ccn([C@@H]2O[C@H](CO)[C@@H](O)C2(F)F)c(=O)n1` [Gemcitabine], in data set [1], the “Median PFS” value is recorded as 3.7 months and the “median OS” value is listed as 6.7 months. Moreover, in data set [2], the “improvement in median survival duration” value is given as 5 week. In data set [3], the “Median progression-free survival (PFS)” value is 3.3 months and the “median overall survival (OS)” value is given as 6.8 months. The half-maximal cytotoxic concentration (CC50) in data set [4] (setting [5]) is above 800 µM. In addition, the half-maximal cytotoxic concentration (CC50) in data set [4] (setting [6]) is above 800 µM.

Turning to `O=c1[nH]cc(F)c(=O)[nH]1` [Compound 5-FU, 5-Fluorouracil], the cytotoxic concentration (CC50) in data set [4] (setting [5]) and in data set [4] (setting [6]) was above 800 µM throughout.

Take `O=C1[O][Pt]2([NH][C@@H]3CCCC[C@H]3[NH]2)[O]C1=O` [Oxaliplatin]: the CC50 was 655 µM in data set [4] (AsPC-1 cells, 48 hrs) and 57.9 µM in data set [4] (AsPC-1 cells, 72 hrs).

For `CCc1c2c(nc3ccc(OC(=O)N4CCC(N5CCCCC5)CC4)cc13)-c1cc3c(c(=O)n1C2)COC(=O)[C@]3(O)CC` [Irinotecan], the CC50 came out at 221 µM in data set [4] (setting [5]) and 68.3 µM in data set [4] (setting [6]).

For `CC(=O)O[C@H]1C(=O)[C@@]2(C)[C@H]([C@H](OC(=O)c3ccccc3)[C@]3(O)C[C@H](OC(=O)[C@H](O)[C@@H](NC(=O)c4ccccc4)c4ccccc4)C(C)=C1C3(C)C)[C@]1(OC(C)=O)CO[C@@H]1C[C@@H]2O` [Paclitaxel], the figures for the CC50 in data set [4] (setting [5]) and in data set [4] (setting [6]) were 7.05 µM and 3.72 µM, respectively.

As to `C#Cc1cccc(Nc2ncnc3cc(OCCOC)c(OCCOC)cc23)c1` [Erlotinib], the half-maximal cytotoxic concentration (CC50) in data set [4] (setting [5]) and in data set [4] (setting [6]) was above 800 µM in each case.
